According to ChEMBL document CHEMBL4507266, “Data for DCP probe BAY-784” (2021):

Experiments:
[1] = target: Homeodomain-interacting protein kinase 2 (Homo sapiens) (UniProt Q9H2X6); conditions: Compound concentration 1000.0 nM
[2] = target: Serine/threonine-protein kinase TAO3 (Homo sapiens) (UniProt Q9H2K8); conditions: Compound concentration 1000.0 nM
[3] = target: Death-associated protein kinase 3 (Homo sapiens) (UniProt O43293); conditions: Compound concentration 1000.0 nM
[4] = target: Mitogen-activated protein kinase 12 (Homo sapiens) (UniProt P53778); conditions: Compound concentration 1000.0 nM
[5] = target: Dual specificity tyrosine-phosphorylation-regulated kinase 1A (Homo sapiens) (UniProt Q13627); conditions: Compound concentration 1000.0 nM
[6] = target: Serine/threonine-protein kinase MAK (Homo sapiens) (UniProt P20794); conditions: Compound concentration 1000.0 nM
[7] = target: T1, Muscarinic acetylcholine receptor M1 (Homo sapiens) (UniProt P11229); conditions: Compound concentration 10.0 uM
T1 sequence (whole entry): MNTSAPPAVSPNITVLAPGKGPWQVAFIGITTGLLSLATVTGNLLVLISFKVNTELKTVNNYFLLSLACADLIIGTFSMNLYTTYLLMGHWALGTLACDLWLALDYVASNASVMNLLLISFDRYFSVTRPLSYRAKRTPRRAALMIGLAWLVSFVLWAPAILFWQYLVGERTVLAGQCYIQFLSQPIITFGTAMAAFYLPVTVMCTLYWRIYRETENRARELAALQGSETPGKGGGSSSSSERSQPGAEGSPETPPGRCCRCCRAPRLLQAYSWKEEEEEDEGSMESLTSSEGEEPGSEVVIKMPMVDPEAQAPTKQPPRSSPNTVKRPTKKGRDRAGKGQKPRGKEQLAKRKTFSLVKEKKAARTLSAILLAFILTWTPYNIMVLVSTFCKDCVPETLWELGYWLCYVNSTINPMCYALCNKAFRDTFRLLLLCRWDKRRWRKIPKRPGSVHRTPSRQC

[8] = target: Cyclin-dependent kinase 4 (Homo sapiens) (UniProt P11802); conditions: Compound concentration 1000.0 nM
[9] = target: SRSF protein kinase 3 (Homo sapiens) (UniProt Q9UPE1); conditions: Compound concentration 1000.0 nM
[10] = target: Histamine H3 receptor (Homo sapiens) (UniProt Q9Y5N1); conditions: Compound concentration 10.0 uM
[11] = target: Muscarinic acetylcholine receptor M3 (Homo sapiens) (UniProt P20309); conditions: Compound concentration 10.0 uM
[12] = target: Beta-3 adrenergic receptor (Homo sapiens) (UniProt P13945); conditions: Compound concentration 10.0 uM
[13] = target: Serine/threonine-protein kinase pim-3 (Homo sapiens) (UniProt Q86V86); conditions: Compound concentration 1000.0 nM
[14] = target: Serine/threonine-protein kinase Chk1 (Homo sapiens) (UniProt O14757); conditions: Compound concentration 1000.0 nM
[15] = target: Cyclin-dependent kinase 3 (Homo sapiens) (UniProt Q00526); conditions: Compound concentration 1000.0 nM
[16] = target: Serine/threonine-protein kinase PAK 1 (Homo sapiens) (UniProt Q13153); conditions: Compound concentration 1000.0 nM
[17] = target: Interleukin-1 receptor-associated kinase 4 (Homo sapiens) (UniProt Q9NWZ3); conditions: Compound concentration 1000.0 nM
[18] = target: Ribosomal protein S6 kinase alpha-5 (Homo sapiens) (UniProt O75582); conditions: Compound concentration 1000.0 nM
[19] = target: Mitogen-activated protein kinase kinase kinase 14 (Homo sapiens) (UniProt Q99558); conditions: Compound concentration 1000.0 nM
[20] = target: Activin receptor type-2A (Homo sapiens) (UniProt P27037); conditions: Compound concentration 1000.0 nM
[21] = target: Receptor-interacting serine/threonine-protein kinase 2 (Homo sapiens) (UniProt O43353); conditions: Compound concentration 1000.0 nM
[22] = target: Dual specificity mitogen-activated protein kinase kinase 2 (Homo sapiens) (UniProt P36507); conditions: Compound concentration 1000.0 nM
[23] = target: Casein kinase I isoform epsilon (Homo sapiens) (UniProt P49674); conditions: Compound concentration 1000.0 nM
[24] = target: Serine/threonine-protein kinase D1 (Homo sapiens) (UniProt Q15139); conditions: Compound concentration 1000.0 nM
[25] = test system: Epidermal growth factor receptor (Homo sapiens), P00533 [UNDEFINED MUTATION]; conditions: Compound concentration 1000.0 nM
[26] = target: Mitogen-activated protein kinase kinase kinase kinase 1 (Homo sapiens) (UniProt Q92918); conditions: Compound concentration 1000.0 nM
[27] = target: 5-hydroxytryptamine receptor 2A (Homo sapiens) (UniProt P28223); conditions: Compound concentration 10.0 uM
[28] = target: Ribosomal protein S6 kinase alpha-3 (Homo sapiens) (UniProt P51812); conditions: Compound concentration 1000.0 nM
[29] = test system: ALK tyrosine kinase receptor (Homo sapiens), Q9UM73 [L1196M]; conditions: Compound concentration 1000.0 nM
[30] = target: Cytoplasmic tyrosine-protein kinase BMX (Homo sapiens) (UniProt P51813); conditions: Compound concentration 1000.0 nM
[31] = target: Tyrosine-protein kinase JAK1 (Homo sapiens) (UniProt P23458); conditions: Compound concentration 1000.0 nM
[32] = test system: Tyrosine-protein kinase ABL1 (Homo sapiens), P00519 [F317L]; conditions: Compound concentration 1000.0 nM
[33] = target: Dual specificity mitogen-activated protein kinase kinase 6 (Homo sapiens) (UniProt P52564); conditions: Compound concentration 1000.0 nM
[34] = target: Serine/threonine-protein kinase N2 (Homo sapiens) (UniProt Q16513); conditions: Compound concentration 1000.0 nM
[35] = target: Serine/threonine-protein kinase Nek7 (Homo sapiens) (UniProt Q8TDX7); conditions: Compound concentration 1000.0 nM
[36] = target: Activin receptor type-1 (Homo sapiens) (UniProt Q04771); conditions: Compound concentration 1000.0 nM
[37] = target: Ephrin type-B receptor 1 (Homo sapiens) (UniProt P54762); conditions: Compound concentration 1000.0 nM
[38] = target: Tyrosine-protein kinase JAK1 (Homo sapiens) (UniProt P23458); conditions: Compound concentration 1000.0 nM; remark: listed apart in the source
[39] = target: Serine/threonine-protein kinase PLK1 (Homo sapiens) (UniProt P53350); conditions: Compound concentration 1000.0 nM
Chain of Serine/threonine-protein kinase PLK1 (Homo sapiens) (P53350 whole entry): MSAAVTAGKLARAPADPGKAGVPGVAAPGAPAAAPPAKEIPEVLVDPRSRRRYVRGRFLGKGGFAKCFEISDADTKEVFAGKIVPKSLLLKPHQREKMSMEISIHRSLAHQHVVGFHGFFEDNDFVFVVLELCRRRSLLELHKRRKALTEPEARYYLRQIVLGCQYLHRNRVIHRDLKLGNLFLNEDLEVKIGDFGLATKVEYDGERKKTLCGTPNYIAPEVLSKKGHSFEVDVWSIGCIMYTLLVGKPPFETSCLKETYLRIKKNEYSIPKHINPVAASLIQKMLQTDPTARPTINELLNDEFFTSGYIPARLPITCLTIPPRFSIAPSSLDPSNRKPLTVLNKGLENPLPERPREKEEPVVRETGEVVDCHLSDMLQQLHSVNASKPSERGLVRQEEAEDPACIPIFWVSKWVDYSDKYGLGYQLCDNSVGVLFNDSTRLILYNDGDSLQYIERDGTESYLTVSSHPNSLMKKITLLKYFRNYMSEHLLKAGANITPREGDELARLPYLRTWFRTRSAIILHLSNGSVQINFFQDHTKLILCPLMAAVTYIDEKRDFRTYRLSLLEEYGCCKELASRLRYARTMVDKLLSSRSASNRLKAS

Chain of Tyrosine-protein kinase JAK1 (Homo sapiens) (P23458 whole entry): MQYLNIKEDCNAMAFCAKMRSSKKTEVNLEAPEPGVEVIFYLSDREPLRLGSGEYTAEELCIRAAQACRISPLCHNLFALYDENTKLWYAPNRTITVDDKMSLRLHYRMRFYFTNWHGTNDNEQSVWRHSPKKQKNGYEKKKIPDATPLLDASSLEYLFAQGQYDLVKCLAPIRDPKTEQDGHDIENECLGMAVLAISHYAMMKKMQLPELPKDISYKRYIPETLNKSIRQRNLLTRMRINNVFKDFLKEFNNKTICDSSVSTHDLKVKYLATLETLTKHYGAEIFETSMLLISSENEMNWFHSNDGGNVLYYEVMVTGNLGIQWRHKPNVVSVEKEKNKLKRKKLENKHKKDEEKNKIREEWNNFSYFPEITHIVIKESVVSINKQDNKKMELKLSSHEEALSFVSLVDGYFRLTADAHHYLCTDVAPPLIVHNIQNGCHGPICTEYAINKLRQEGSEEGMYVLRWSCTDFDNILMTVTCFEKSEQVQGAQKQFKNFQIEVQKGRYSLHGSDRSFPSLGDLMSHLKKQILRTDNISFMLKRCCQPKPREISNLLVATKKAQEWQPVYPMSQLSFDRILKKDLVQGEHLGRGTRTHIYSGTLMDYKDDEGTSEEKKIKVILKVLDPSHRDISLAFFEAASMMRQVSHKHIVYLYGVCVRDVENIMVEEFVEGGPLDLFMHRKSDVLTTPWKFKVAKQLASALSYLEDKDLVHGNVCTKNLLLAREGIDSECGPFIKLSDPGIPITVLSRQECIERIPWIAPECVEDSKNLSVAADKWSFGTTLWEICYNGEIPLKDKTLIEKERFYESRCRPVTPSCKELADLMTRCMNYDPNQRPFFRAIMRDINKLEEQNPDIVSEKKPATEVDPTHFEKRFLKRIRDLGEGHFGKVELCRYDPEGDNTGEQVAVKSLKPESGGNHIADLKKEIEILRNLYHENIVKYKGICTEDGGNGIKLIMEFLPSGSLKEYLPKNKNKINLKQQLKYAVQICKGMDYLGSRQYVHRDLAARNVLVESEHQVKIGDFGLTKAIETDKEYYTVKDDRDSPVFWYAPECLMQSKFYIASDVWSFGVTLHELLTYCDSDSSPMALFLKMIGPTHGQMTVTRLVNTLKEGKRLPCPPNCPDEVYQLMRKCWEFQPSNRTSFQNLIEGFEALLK
Chain of Dual specificity mitogen-activated protein kinase kinase 2 (Homo sapiens) (P36507 whole entry, canonical isoform): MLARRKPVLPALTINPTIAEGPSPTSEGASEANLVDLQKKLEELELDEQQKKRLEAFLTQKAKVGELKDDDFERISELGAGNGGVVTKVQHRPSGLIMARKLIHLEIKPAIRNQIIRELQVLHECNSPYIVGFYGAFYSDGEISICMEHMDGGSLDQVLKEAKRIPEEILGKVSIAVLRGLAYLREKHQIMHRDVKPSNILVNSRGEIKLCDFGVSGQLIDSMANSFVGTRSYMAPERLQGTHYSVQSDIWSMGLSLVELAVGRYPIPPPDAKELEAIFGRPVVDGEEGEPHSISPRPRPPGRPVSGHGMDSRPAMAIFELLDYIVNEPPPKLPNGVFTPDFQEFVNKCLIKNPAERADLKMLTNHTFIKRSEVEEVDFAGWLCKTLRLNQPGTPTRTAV
Chain of Cyclin-dependent kinase 4 (Homo sapiens) (P11802 whole entry): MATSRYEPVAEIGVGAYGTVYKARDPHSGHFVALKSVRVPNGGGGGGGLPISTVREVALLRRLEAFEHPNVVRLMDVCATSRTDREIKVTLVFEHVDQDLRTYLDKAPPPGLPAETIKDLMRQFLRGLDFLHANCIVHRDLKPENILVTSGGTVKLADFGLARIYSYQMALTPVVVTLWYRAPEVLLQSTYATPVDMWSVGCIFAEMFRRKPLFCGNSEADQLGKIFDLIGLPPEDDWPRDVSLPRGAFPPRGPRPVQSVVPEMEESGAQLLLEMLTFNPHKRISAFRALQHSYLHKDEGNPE
Chain of Histamine H3 receptor (Homo sapiens) (Q9Y5N1 whole entry): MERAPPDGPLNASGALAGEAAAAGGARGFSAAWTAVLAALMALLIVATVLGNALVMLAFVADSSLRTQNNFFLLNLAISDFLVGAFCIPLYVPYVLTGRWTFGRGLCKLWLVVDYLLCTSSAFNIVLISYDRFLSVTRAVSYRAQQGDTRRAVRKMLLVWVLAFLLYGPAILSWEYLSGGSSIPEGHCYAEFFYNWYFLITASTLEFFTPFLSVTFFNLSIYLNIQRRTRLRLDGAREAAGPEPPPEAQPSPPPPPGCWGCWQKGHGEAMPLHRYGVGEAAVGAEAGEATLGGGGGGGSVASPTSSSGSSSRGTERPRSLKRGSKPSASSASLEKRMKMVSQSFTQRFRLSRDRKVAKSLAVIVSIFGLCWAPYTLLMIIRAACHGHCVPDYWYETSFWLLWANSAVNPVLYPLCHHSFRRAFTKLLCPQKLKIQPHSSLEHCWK
Chain of Ribosomal protein S6 kinase alpha-5 (Homo sapiens) (O75582 whole entry, looked up): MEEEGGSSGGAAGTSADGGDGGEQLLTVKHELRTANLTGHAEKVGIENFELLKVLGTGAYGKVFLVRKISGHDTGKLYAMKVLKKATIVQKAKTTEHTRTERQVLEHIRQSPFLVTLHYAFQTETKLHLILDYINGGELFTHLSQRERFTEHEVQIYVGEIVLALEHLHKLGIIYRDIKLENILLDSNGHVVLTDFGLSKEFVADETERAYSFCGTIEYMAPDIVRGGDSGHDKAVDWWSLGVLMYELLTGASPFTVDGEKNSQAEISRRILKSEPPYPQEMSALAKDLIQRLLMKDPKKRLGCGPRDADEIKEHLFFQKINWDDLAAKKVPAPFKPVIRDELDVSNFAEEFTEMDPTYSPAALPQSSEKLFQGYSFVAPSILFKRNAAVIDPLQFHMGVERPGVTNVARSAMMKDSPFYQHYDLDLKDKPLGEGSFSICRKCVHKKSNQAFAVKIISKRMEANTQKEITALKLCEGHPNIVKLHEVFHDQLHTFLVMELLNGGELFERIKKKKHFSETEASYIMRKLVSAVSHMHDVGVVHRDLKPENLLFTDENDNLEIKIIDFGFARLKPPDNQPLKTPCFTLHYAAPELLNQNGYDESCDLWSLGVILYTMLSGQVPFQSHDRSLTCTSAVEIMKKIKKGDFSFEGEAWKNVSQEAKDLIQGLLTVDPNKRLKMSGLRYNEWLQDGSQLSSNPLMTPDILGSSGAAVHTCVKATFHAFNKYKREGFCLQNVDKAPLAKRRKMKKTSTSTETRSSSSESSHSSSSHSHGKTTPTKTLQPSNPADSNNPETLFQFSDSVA
Chain of Interleukin-1 receptor-associated kinase 4 (Homo sapiens) (Q9NWZ3 whole entry): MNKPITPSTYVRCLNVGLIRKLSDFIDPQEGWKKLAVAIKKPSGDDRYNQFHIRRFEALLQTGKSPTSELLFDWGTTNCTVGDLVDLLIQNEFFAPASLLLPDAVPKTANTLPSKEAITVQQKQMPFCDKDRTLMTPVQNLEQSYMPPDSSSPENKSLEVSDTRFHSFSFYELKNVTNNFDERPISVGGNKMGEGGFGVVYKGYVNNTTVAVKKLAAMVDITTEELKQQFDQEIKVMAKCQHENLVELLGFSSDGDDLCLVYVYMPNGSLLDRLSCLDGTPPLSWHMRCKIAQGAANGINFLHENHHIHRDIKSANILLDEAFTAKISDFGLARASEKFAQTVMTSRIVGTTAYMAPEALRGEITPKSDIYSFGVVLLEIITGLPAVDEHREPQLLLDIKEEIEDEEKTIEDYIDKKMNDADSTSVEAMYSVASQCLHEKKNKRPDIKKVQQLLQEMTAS
Chain of Cytoplasmic tyrosine-protein kinase BMX (Homo sapiens) (P51813 whole entry): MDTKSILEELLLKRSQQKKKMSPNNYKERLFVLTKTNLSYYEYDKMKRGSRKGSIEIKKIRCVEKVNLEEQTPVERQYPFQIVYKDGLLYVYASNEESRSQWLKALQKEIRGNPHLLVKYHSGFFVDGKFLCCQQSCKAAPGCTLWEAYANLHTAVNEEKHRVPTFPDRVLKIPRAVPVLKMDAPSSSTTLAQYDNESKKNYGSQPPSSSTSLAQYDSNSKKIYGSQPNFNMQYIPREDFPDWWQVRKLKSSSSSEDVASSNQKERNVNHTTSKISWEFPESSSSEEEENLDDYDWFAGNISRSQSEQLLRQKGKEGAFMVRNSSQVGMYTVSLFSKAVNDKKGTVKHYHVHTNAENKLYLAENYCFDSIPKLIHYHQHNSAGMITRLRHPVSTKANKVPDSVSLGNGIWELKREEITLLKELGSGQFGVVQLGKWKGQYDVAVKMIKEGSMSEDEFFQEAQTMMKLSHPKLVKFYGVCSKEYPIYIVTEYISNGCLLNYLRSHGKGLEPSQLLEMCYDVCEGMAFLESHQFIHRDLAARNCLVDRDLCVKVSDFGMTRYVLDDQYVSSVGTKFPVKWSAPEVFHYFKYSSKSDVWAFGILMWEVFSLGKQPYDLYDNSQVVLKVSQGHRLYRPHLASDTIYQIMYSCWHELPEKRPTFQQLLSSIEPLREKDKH

Row | Structure (SMILES) | residual activity [1] | residual activity [2] | residual activity [3] | residual activity [4] | residual activity [5] | residual activity [6] | inhibition [7] | residual activity [8] | residual activity [9] | inhibition [10] | inhibition [11] | inhibition [12] | residual activity [13] | residual activity [14] | residual activity [15] | residual activity [16] | residual activity [17] | residual activity [18] | residual activity [19] | residual activity [20] | other results
1 | O=C(NCc1ncc(C(F)(F)F)cc1Cl)c1ccc2c(c1)C1(CCS(=O)(=O)CC1)[C@H](C1CC1)N2S(=O)(=O)c1ccc(F)cc1 [BAY-784] | 81% | 99% | 90% | 100% | 88% | 100% | -2.96% | 86% | 100% | -8.26% | 18.1% | -2.87% | 100% | 100% | 100% | 100% | 100% | 100% | 100% | 86% | residual activity [21]: 100%; residual activity [22]: 88%; residual activity [23]: 100%; residual activity [24]: 93%; residual activity [25]: 100%; residual activity [26]: 100%; inhibition [27]: -4.7%; residual activity [28]: 70%; residual activity [29]: 76%; residual activity [30]: 100%; residual activity [31]: 87%; residual activity [32]: 74%; residual activity [33]: 100%; residual activity [34]: 70%; residual activity [35]: 100%; residual activity [36]: 100%; residual activity [37]: 100%; residual activity [38]: 86%; residual activity [39]: 86%
2 | O=C(NCc1ncc(C(F)(F)F)cc1Cl)c1ccc2c(c1)C1(CCS(=O)(=O)CC1)[C@@H](C1CC1)N2S(=O)(=O)c1ccc(F)cc1 [BAY-786] | 72% | 80% | 89% | 94% | 85% | 89% | -3.7% | 82% | 100% | 6.92% | 14.4% | -0.77% | 85% | 100% | 41% | 80% | 90% | 97% | 71% | 100% | residual activity [21]: 100%; residual activity [22]: 78%; residual activity [23]: 100%; residual activity [24]: 76%; residual activity [25]: 79%; residual activity [26]: 89%; inhibition [27]: 5.01%; residual activity [28]: 57%; residual activity [29]: 87%; residual activity [30]: 92%; residual activity [31]: 85%; residual activity [32]: 68%; residual activity [33]: 100%; residual activity [34]: 68%; residual activity [35]: 65%; residual activity [36]: 97%; residual activity [37]: 100%; residual activity [38]: 85%; residual activity [39]: 82%
